This assay concerns Acanthocheilonema viteae. The experiment in a line: Antifilarial activity against Dipetalonema viteae after 120 hrs. Type of assay: functional, organism-based. The note with it: read-out: log(1/EC50) (converted).

The text below walks through data of ChEMBL document CHEMBL2046275, “Cellular quantitative structure-activity relationship (Cell-QSAR): conceptual dissection of receptor binding and intracellular disposition in antifilarial activities of Selwood antimycins” (J Med Chem, 2012).

Consider `O=C(Nc1ccc(Nc2ccc(SC(F)(F)F)cc2)c(Cl)c1)c1cc([N+](=O)[O-])ccc1O`, for which the EC50 was 0.028 µM.
As to `CCCCCCNC(=O)c1cccc(NC=O)c1O`, the EC50 was more than 10 µM.
Under `O=C(Nc1ccc(C(O)c2ccccc2)cc1)c1cc([N+](=O)[O-])ccc1O` (stereo not drawn) stands more than 10 µM.
